# Measured values: patent US11807644B2 (PMV Pharmaceuticals, Inc., priority 2020, dated 2023)
# Biological target: T1, recombinant His-tag Y220C p53 DBD protein (Homo sapiens, UniProt P04637, Y220C)
# T1 construct: recombinant His-tag Y220C p53 DBD protein (amino acids #˜94-312)
# Experiment: In vitro DNA binding activity assay (TR-FRET): binding of His-tag Y220C p53 DBD to biotin-labeled consensus DNA
# Assay type: biochemical
# Details: SC150 = concentration to increase DNA binding by […], His-tag Y220C p53 DBD, biotin-labeled consensus DNA
row,Y220C SC150 (μM),SMILES
1,** (** = 0.1 μM ≤ SC150 < 0.5 μM),"CCCC(=O)NCc1nnc(-c2cc3c(NC4CCN(C)CC4)cccc3n2CC(F)(F)F)s1 [Compound 65B, N-[(5-{4-[(1-methylpiperidin-4-yl)amino]-1-(2,2,2-trifluoroethyl)-1H-indol-2-yl}-1,3,4-thiadiazol-2-yl)methyl]butanamide]"
2,** (** = 0.1 μM ≤ SC150 < 0.5 μM),"CN1CCC(Nc2cccc3c2cc(-c2nnc(CNC(=O)N(C)C)s2)n3CC(F)(F)F)CC1 [Compound 68B, 3,3-dimethyl-1-[(5-{4-[(1-methylpiperidin-4-yl)amino]-1-(2,2,2-trifluoroethyl)-1H-indol-2-yl}-1,3,4-thiadiazol-2-yl)methyl]urea]"
3,** (** = 0.1 μM ≤ SC150 < 0.5 μM),"CN1CCC(Nc2cccc3c2cc(-c2nnc(CNC(=O)C4(C)CC4)s2)n3CC(F)(F)F)CC1 [Compound 71B, 1-methyl-N-[(5-{4-[(1-methylpiperidin-4-yl)amino]-1-(2,2,2-trifluoroethyl)-1H-indol-2-yl}-1,3,4-thiadiazol-2-yl)methyl]cyclopropane-1-carboxamide]"
4,* (* = 0 μM ≤ SC150 < 0.1 μM),"CN1CCC(Nc2cccc3c2cc(-c2nnc(CNC(=O)c4cn[nH]c4)s2)n3CC(F)(F)F)CC1 [Compound 72B, N-[(5-{4-[(1-methylpiperidin-4-yl)amino]-1-(2,2,2-trifluoroethyl)-1H-indol-2-yl}-1,3,4-thiadiazol-2-yl)methyl]-1H-pyrazole-4-carboxamide]"
5,** (** = 0.1 μM ≤ SC150 < 0.5 μM),"CCC1(C(=O)NCc2nnc(-c3cc4c(NC5CCN(C)CC5)cccc4n3CC(F)(F)F)s2)CC1 [Compound 74B, 1-ethyl-N-[(5-{4-[(1-methylpiperidin-4-yl)amino]-1-(2,2,2-trifluoroethyl)-1H-indol-2-yl}-1,3,4-thiadiazol-2-yl)methyl]cyclopropane-1-carboxamide]"
6,* (* = 0 μM ≤ SC150 < 0.1 μM),"CN1CCC(Nc2cccc3c2cc(-c2nnc(CNC(=O)c4ccn(C)c4)s2)n3CC(F)(F)F)CC1 [Compound 77B, 1-methyl-N-[(5-{4-[(1-methylpiperidin-4-yl)amino]-1-(2,2,2-trifluoroethyl)-1H-indol-2-yl}-1,3,4-thiadiazol-2-yl)methyl]-1H-pyrrole-3-carboxamide]"
7,* (* = 0 μM ≤ SC150 < 0.1 μM),"CN1CCC(Nc2cccc3c2cc(-c2nnc(CNC(=O)c4cc[nH]c4)s2)n3CC(F)(F)F)CC1 [Compound 78B, N-[(5-{4-[(1-methylpiperidin-4-yl)amino]-1-(2,2,2-trifluoroethyl)-1H-indol-2-yl}-1,3,4-thiadiazol-2-yl)methyl]-1H-pyrrole-3-carboxamide]"
8,* (* = 0 μM ≤ SC150 < 0.1 μM),"CN1CCC(Nc2cccc3c2cc(-c2nnc(CNC(=O)C4CC4c4cccs4)s2)n3CC(F)(F)F)CC1 (stereo not shown) [Compound 79B, N-[(5-{4-[(1-methylpiperidin-4-yl)amino]-1-(2,2,2-trifluoroethyl)-1H-indol-2-yl}-1,3,4-thiadiazol-2-yl)methyl]-2-(thiophen-2-yl)cyclopropane-1-carboxamide]"
9,**** (**** = 1 μM ≤ SC150 < 10 μM),"CN1CCC(Nc2cccc3c2cc(-c2nnc(CNC4CCNC4)s2)n3CC(F)(F)F)CC1 (stereo not shown) [Compound 80B, N-(1-methylpiperidin-4-yl)-2-(5-{[(pyrrolidin-3-yl)amino]methyl}-1,3,4-thiadiazol-2-yl)-1-(2,2,2-trifluoroethyl)-1H-indol-4-amine]"

# Further lines, the compound ahead of its results:
row,SMILES,Y220C SC150 (μM)
1,"COc1cc(S(C)(=O)=O)ccc1NCc1nnc(-c2cc3c(N[C@@H]4CCN(C)C[C@@H]4F)cccc3n2CC(F)(F)F)s1 [Compound 62B, N-[(3S,4R)-3-fluoro-1-methylpiperidin-4-yl]-2-(5-{[(4-methanesulfonyl-2-methoxyphenyl)amino]methyl}-1,3,4-thiadiazol-2-yl)-1-(2,2,2-trifluoroethyl)-1H-indol-4-amine]",* (* = 0 μM ≤ SC150 < 0.1 μM)
2,"COc1ccc(C(=O)NCc2nnc(-c3cc4c(NC5CCN(C)CC5)cccc4n3CC(F)(F)F)s2)cc1 [Compound 63B, 4-methoxy-N-[(5-{4-[(1-methylpiperidin-4-yl)amino]-1-(2,2,2-trifluoroethyl)-1H-indol-2-yl}-1,3,4-thiadiazol-2-yl)methyl]benzamide]",* (* = 0 μM ≤ SC150 < 0.1 μM)
3,"COc1cccc(C(=O)NCc2nnc(-c3cc4c(NC5CCN(C)CC5)cccc4n3CC(F)(F)F)s2)c1 [Compound 64B, 3-methoxy-N-[(5-{4-[(1-methylpiperidin-4-yl)amino]-1-(2,2,2-trifluoroethyl)-1H-indol-2-yl}-1,3,4-thiadiazol-2-yl)methyl]benzamide]",* (* = 0 μM ≤ SC150 < 0.1 μM)
4,"COc1ccccc1C(=O)NCc1nnc(-c2cc3c(NC4CCN(C)CC4)cccc3n2CC(F)(F)F)s1 [Compound 66B, 2-methoxy-N-[(5-{4-[(1-methylpiperidin-4-yl)amino]-1-(2,2,2-trifluoroethyl)-1H-indol-2-yl}-1,3,4-thiadiazol-2-yl)methyl]benzamide]",* (* = 0 μM ≤ SC150 < 0.1 μM)
5,"CN1CCC(Nc2cccc3c2cc(-c2nnc(CNC(=O)c4ccc5cn[nH]c5c4)s2)n3CC(F)(F)F)CC1 [Compound 69B, N-[(5-{4-[(1-methylpiperidin-4-yl)amino]-1-(2,2,2-trifluoroethyl)-1H-indol-2-yl}-1,3,4-thiadiazol-2-yl)methyl]-1H-indazole-6-carboxamide]",* (* = 0 μM ≤ SC150 < 0.1 μM)
6,"O=C(NCc1nnc(-c2cc3c(N[C@@H]4CCNC[C@@H]4F)cccc3n2CC(F)(F)F)s1)OCc1ccccc1 [Compound 70B, benzyl N-{[5-(4-{[(3S,4R)-3-fluoropiperidin-4-yl]amino}-1-(2,2,2-trifluoroethyl)-1H-indol-2-yl)-1,3,4-thiadiazol-2-yl]methyl}carbamate]",* (* = 0 μM ≤ SC150 < 0.1 μM)
7,"CN1CCC(Nc2cccc3c2cc(-c2nnc(CNc4cn[nH]c4)s2)n3CC(F)(F)F)CC1 [Compound 82B, N-(1-methylpiperidin-4-yl)-2-(5-{[(1H-pyrazol-4-yl)amino]methyl}-1,3,4-thiadiazol-2-yl)-1-(2,2,2-trifluoroethyl)-1H-indol-4-amine]",** (** = 0.1 μM ≤ SC150 < 0.5 μM)
8,"CN1CCC(Nc2cccc3c2cc(-c2ncc(CNC(=O)c4ccccc4)s2)n3CC(F)(F)F)CC1 [Compound 92B, N-[(2-{4-[(1-methylpiperidin-4-yl)amino]-1-(2,2,2-trifluoroethyl)-1H-indol-2-yl}-1,3-thiazol-5-yl)methyl]benzamide]",** (** = 0.1 μM ≤ SC150 < 0.5 μM)
9,"CN1CCC(Nc2cccc3c2cc(-c2ncc(CNC(=O)C4CC4)s2)n3CC(F)(F)F)CC1 [Compound 94B, N-[(2-{4-[(1-methylpiperidin-4-yl)amino]-1-(2,2,2-trifluoroethyl)-1H-indol-2-yl}-1,3-thiazol-5-yl)methyl]cyclopropanecarboxamide]",* (* = 0 μM ≤ SC150 < 0.1 μM)
10,"COc1cc(S(C)(=O)=O)ccc1NCc1cnc(-c2cc3c(N[C@@H]4CCN(C)C[C@@H]4F)cccc3n2CC(F)(F)F)s1 [Compound 99B, N-[(3S,4R)-3-fluoro-1-methylpiperidin-4-yl]-2-(5-{[(4-methanesulfonyl-2-methoxyphenyl)amino]methyl}-1,3-thiazol-2-yl)-1-(2,2,2-trifluoroethyl)-1H-indol-4-amine]",* (* = 0 μM ≤ SC150 < 0.1 μM)
